Results as given in patent publication US20240351977A1, “Compositions and Methods For Reducing Immune Intolerance and Treating Autoimmune Disorders” (Lapix Therapeutics, Inc., priority 2021, published 2024).

Key:
[1] = test system: FoxP3^+/TIM3^+ CD4 T-cells; experiment: In vitro dose-response analysis in murine T-cells (splenocytes, flow cytometry); format: cell-based, C57BL/6 mice; settings: for change in FoxP3+/TIM3+ CD4 T-cells with dose: 48 μM to 1.5 μM; for EC50 / EC90: Mus musculus, T-cell, increase in percent FoxP3+/TIM3+ CD4 T-cells, 30:70 drug:DMPC liposomes, 4-parameter model, Emax fixed to 7.9%; for EC50: read-out: EC50 mean (SE); for EC90: read-out: EC90 mean (SE)
Procedure: Compound 1 and Compound 2 were each formulated with dimyristoylphosphatidylcholine (DMPC) at a 30:70 drug to lipid molar ratio. Liposomes were synthesized according to Example 2 in PBS.
Splenocytes from naïve C57BL/6 mice were stained with CFSE, prepared, cultured, and dosed. Cells were seeded at 2×10^5 cells/well. Cells were dosed with each compound from 48 μM to 1.5 μM at a log 2 dilution scheme. Cells were incubated for 72 hours before phenotyping for FoxP3^+/TIM3^+ CD4 T-cells. Flow cytometer analysis was performed to assess changes in percent FoxP3^+/TIM3^+ CD4 T-cells as a function of treatment and dose. Concentration versus response was fitted to a four- or five-parameter log-logistic model (using the “drc” package in “R”). The EC50 and EC90 values were obtained by model fitting.

[2] = test system: FoxP3^+/CD4^+ T-cells; experiment: Splenocyte flow cytometry at end of EAE study; format: in vivo, mice
Procedure: At the end of the study, spleens were collected from a representative sample of mice from each group for splenocyte analysis. A single-cell suspension was prepared for cellular phenotyping by flow cytometry. Cells were stained and gated for CD4^+T-cells. Percent FoxP3^+/CD4^+ T-cells were evaluated by flow cytometry.

[3] = test system: MOG35-55-Induced Murine EAE Model; experiment: MOG35-55-induced murine EAE model, prophylactic and therapeutic treatment; format: in vivo, mice
Procedure: Compound 2 was formulated with 1,2-distearoyl-sn-glycero-3-phosphocholine (DSPC) at a molar ratio of 3.75:96.25 Compound 2:DSPC. Two test articles were formulated and tested. The first formulation was made with Compound 2:DSPC with MOG35-55, referred to as Compound 2/MOG35-55. Another formulation was made without […], and is referred to as Compound 2. […] The ratio of Compound 2 to DSPC was chosen based on in vitro dose-response studies. Liposomes were prepared as described in Example 2, in PBS and extruded through a […] filter. Animals were dose with 100 μl of 42 μM Compound 2 or 100 μl of 42 μM/1 μg Compound 2/MOG35-55 per mouse PO QD. This dose was selected based on in vitro dose-response analysis.
In the active EAE model, mice are immunized with MOG35-55 peptide emulsified in Complete Freund's Adjuvant (CFA) by subcutaneous injection at the tail base (0.1 mL of emulsion/mouse) under anesthesia. On the day of injection (Day 0) and 2 days later, mice receive an intraperitoneal injection of Pertussis Toxin (PT) in PBS at 600 ng/mouse/dose (0.1 mL).
Symptoms typically develop in mice 9-14 days after immunization (Day 0). Daily observation and scoring of mice start on Day 9 and continue until the end of the study. Table 10 details the expected clinical symptoms and the scoring criteria used in this study.
Mice were dosed with 100 μl of 42 μM Compound 2 or 100 μl of 42 μM of Compound 2 co-formulated with 1 μg of MOG35-55 (Compound 2/MOG35-55) orally QD for the duration of the study.
To evaluate the therapeutic effects of Compound 2, treatment was initiated after the first clinical symptoms were observed. […] The treatment arm received 100 μl of 42 μM Compound 2 PO QD for the remainder of the study. Mice in all groups were monitored and scored daily for clinical symptoms. Once a mouse reached a score of five as per Table 11 or was found dead in the cage it was marked as an event in the survival analysis.

[4] = test system: FoxP3^+/CD4^+ T-cells; experiment: Pharmacodynamic effects of a single PO dose in mice (splenocyte phenotyping); format: in vivo; settings: for percentage of FoxP3+/CD4+ T-cells, mean value: single oral gavage, 10:90 Compound 2:DMPC
Procedure: Compound 2 was dissolved in DMSO and formulated with 1,2-dimyristoyl-sn-glycero-3-phosphocholine (DMPC) at a molar ratio of 10:90 Compound 2:DMPC, as described in Example 2. Animals were dosed according to Table 7.
To evaluate the PD effects of a single dose of Compound 2 in mice, the animals were administered a single oral gavage as per their group assignment (Table 7). Five days after the oral dose, the animals were sacrificed and their spleens were collected for T-cell phenotyping. The study included an ex vivo analysis followed by a dose-response analysis (FIG. 4A). The spleens collected for splenocyte analysis were prepared into a single-cell suspension for cellular phenotyping by flow cytometry (eBioscience, Inc., San Diego, CA). Cells were stained and gated for CD4. Percent FoxP3^+/CD4^+ T-cells were evaluated using flow cytometry. A dose versus response curve was fitted to a four- or five-parameter log-logistic model (using the “drc” package in “R”). The EC50 and EC90 values were obtained by model fitting.

[5] = mouse treated after the onset of symptoms
[6] = four-parameter dose-response model, percent FoxP3+/CD4+ T-cells, single oral dose
[7] = four-parameter dose-response model, single oral dose, 100 μl/mouse

**Q.** With `CCCCCCCCCCCCCCCCOC(=O)NC[C@H](N)C(=O)O` [Compound 1, (S)-2-amino-3-(((hexadecyloxy)carbonyl)amino) propanoic acid] as the molecule, how does the “increase in FoxP3+/TIM3+ CD4 T-cells over low dose” value ([1]; 10 μM) read?
**A.** 126%

**Q.** And the “change in FoxP3+/TIM3+ CD4 T-cells with dose” value [1]?
**A.** dose-dependent increase

**Q.** And the “cell appearance via microscope at end of incubation” value ([1]; 48 μM, 72 hours)?
**A.** did not look healthy

**Q.** What about the EC50 ([1]; 72 hours) of the same molecule?
**A.** 13.4 µM

**Q.** What about the EC90 ([1]; 72 hours) of the same molecule?
**A.** 15 µM

**Q.** What about the “FoxP3+/TIM3+ double positive CD4 T-cells, mean value” ([1]; high dose, 72 hours) of the same molecule?
**A.** 8.26%

**Q.** What about the “FoxP3+/TIM3+ double positive CD4 T-cells, mean value” ([1]; low dose, 72 hours) of the same molecule?
**A.** 3.65%

**Q.** With `CCCCCCCCCCCCCCCCCC(=O)NC[C@H](N)C(=O)O` [Compound 2, (S)-2-amino-3-stearamidopropanoic acid] as the molecule, how does the “increase in FoxP3+/TIM3+ CD4 T-cells over low dose” value ([1]; 30 μM) read?
**A.** 129%

**Q.** What about the toxicity in vitro ([1]; 30 µM dose) of the same molecule?
**A.** less toxicity in vitro compared to Compound 1

**Q.** What about the “change in FoxP3+/TIM3+ CD4 T-cells with dose” value [1] of the same molecule?
**A.** dose-dependent increase

**Q.** And the EC50 ([1]; 72 hours)?
**A.** 14.6 µM

**Q.** And the EC90 ([1]; 72 hours)?
**A.** 17.8 µM

**Q.** And the “FoxP3+/TIM3+ double positive CD4 T-cells, mean value” ([1]; high dose, 72 hours)?
**A.** 7.36%

**Q.** What about the “FoxP3+/TIM3+ double positive CD4 T-cells, mean value” ([1]; low dose, 72 hours) of the same molecule?
**A.** 3.21%

**Q.** What about the “maximum efficacious dose in vitro” value ([1]; preliminary data) of the same molecule?
**A.** 42 µM

**Q.** What about the “increase of Foxp3+/CD4+ T-cells over the surviving mouse in the untreated group” value [2, 5] of the same molecule?
**A.** 715%

**Q.** And the “percent Foxp3+/CD4+ T-cell” value [2, 5]?
**A.** 26.1%

**Q.** And the “increase of Foxp3+/CD4+ T-cells over control” value ([2]; prophylactic group)?
**A.** 225%

**Q.** And the “percent of Foxp3+/CD4+ T-cells” value ([2]; prophylactic group, end of study, control 3.20%)?
**A.** 10.4%

**Q.** What about the “mean clinical score by end of the study” value ([3]; prophylactic) of the same molecule?
**A.** 2.1

**Q.** And the “disease onset, day after immunization” value ([3]; prophylactic, 100 μl of 42 μM PO QD from four days after immunization, control day 9)?
**A.** 12 days

**Q.** What about the “mean clinical score at peak symptoms” value ([3]; prophylactic, day 17, control 4.77) of the same molecule?
**A.** 2.6

**Q.** And the “day by which all animals showed symptoms” value ([3]; prophylactic, control 11)?
**A.** 13 days

**Q.** What about the “delay in disease progression after disease onset” value ([3]; therapeutic, 100 μl of 42 μM PO QD from clinical score of 1) of the same molecule?
**A.** one-day

**Q.** What about the “mean clinical score lower than in the untreated arm” value ([3]; therapeutic, by the end of the study) of the same molecule?
**A.** 54%

**Q.** And the “mean clinical score at peak symptoms” value ([3]; therapeutic, day 6 after the onset of symptoms, control 4.77 on day 7)?
**A.** 2.8

**Q.** And the “mean clinical score after the peak” value ([3]; therapeutic, day 10 after the onset of symptoms)?
**A.** 2.33

**Q.** What about the “animals that spontaneously died or were euthanized (survival analysis)” value ([3]; untreated group eight out of nine) of the same molecule?
**A.** zero out of nine

**Q.** What about the “E0 (model estimated), Mean” value [4, 6] of the same molecule?
**A.** 3.3

**Q.** What about the Emax (model estimated), Mean [4, 6] of the same molecule?
**A.** 12.1%

**Q.** And the ED50 [4, 7]?
**A.** 43.1 µM

**Q.** What about the ED90 [4, 7] of the same molecule?
**A.** 281.0 µM

**Q.** And the “percentage of FoxP3+/CD4+ T-cells, mean value” ([4]; high dose group, 5 days)?
**A.** 11.53%

**Q.** And the “percentage of FoxP3+/CD4+ T-cells, mean value” ([4]; low dose group, 5 days)?
**A.** 3.87%

**Q.** What about the “increase of FoxP3+/CD4+ T-cells (T-regs), high dose group compared to low dose group” value ([4]; single oral dose, 5 days) of the same molecule?
**A.** 219%
